# According to US20040254162A1, “Oxazolidinone derivatives as antimicrobials” (priority 2001, published 2004):
# Several values for one entry are separate records, joined by “and”; a condition that tells them apart may be missing. Equal values may be shown once. Read-outs that look alike come from different tables or passages of the source.
# Columns and labels:
# MRSA 33 = assay: MIC, agar incorporation method
# MRSA 562 [1] = assay: In vivo activity against MRSA 562 (ED50); set-up: species or system Methicillin Resistant Staphylococcus aureus; settings: IV; MRSA 562 infection
# anaerobic bacteria = assay: Agar dilution method for anaerobic bacteria, summary; assay type: cell-based
# MRSA 15187 = assay: MIC, agar incorporation method
# Bacteroides fragilis = assay: Agar dilution MIC, anaerobes; assay type: cell-based
# Clostridium perfringens = assay: microbe, parasite or virus in culture; assay type: cell-based
# [2] = test system: Prevotella (Bacteroides) disiens; assay: Agar dilution MIC, anaerobes; assay type: cell-based; settings: read-out: MIC Prevotella (Bacteroides) disiens
# Fusobacterium varium = assay: Agar dilution MIC, anaerobes; assay type: cell-based; settings: Fusobacterium varium, read-out: MIC Fusobacterium varium
# Ent. faecalis ATCC 29212 = assay: MIC, agar incorporation method
# [3] = test system: Prevotella melaninogenica; assay: Agar dilution MIC, anaerobes; assay type: cell-based; settings: Prevotella melaninogenica, read-out: MIC Prevotella melaninogenica
# Strep. pyog. ATCC 19615 = assay: MIC, agar incorporation method
# G +ve bacteria = assay: Summary of in vitro activity (MIC)
# P. acnes = assay: Agar dilution MIC, anaerobes; assay type: cell-based; settings: for MIC P. acnes: single isolates, anaerobic agar dilution
# [4] = test system: MRSE 879 adherent bacteria; assay: Sintered glass adherent bacteria model; settings: MRSE 879, sintered glass adherent bacteria model
# MRSE 879 = assay: Broth MIC, MRSE 879; assay type: cell-based
# Eubacterium leutum = assay: Agar dilution MIC, anaerobes; assay type: cell-based
# Fusobacterium necrogenes = assay: Agar dilution MIC, anaerobes; assay type: cell-based
# Clostridium difficile = assay: Agar dilution MIC, anaerobes; assay type: cell-based; settings: for MIC Clostridium difficile: single isolates, anaerobic agar dilution
# [5] = test system: Peptostreptococcus prevotii; assay: Agar dilution MIC, anaerobes; assay type: cell-based; settings: Anaerococcus prevotii, read-out: MIC Peptostreptococcus prevotii
# S. pneumoniae = assay: Summary of in vitro activity (MIC); settings: Streptococcus pneumoniae
# Prevotella bivia = assay: Agar dilution MIC, anaerobes; assay type: cell-based
# MRSA 562 [6] = assay: MIC, agar incorporation method; settings: Staphylococcus aureus, MRSA
# Strep. pne. ATCC 6303 = assay: MIC, agar incorporation method
# [7] = Changes in MIC under different conditions: agar MIC; assay type: cell-based; settings: strain not given
# [8] = test system: Peptostreptococcus tetradius; assay: Agar dilution MIC, anaerobes; assay type: cell-based
# Prevotella intermedia = assay: Agar dilution MIC, anaerobes; assay type: cell-based
# [9] = test system: Peptostreptococcus micros; assay: Agar dilution MIC, anaerobes; assay type: cell-based; settings: Parvimonas micra, read-out: MIC Peptostreptococcus micros
# Fusobacterium nucleatum = assay: Agar dilution MIC, anaerobes; assay type: cell-based; settings: Fusobacterium nucleatum, read-out: MIC Fusobacterium nucleatum
# [10] = test system: Porphyromonas asaccharolytica; assay: Agar dilution MIC, anaerobes; assay type: cell-based
# [11] = Changes in MIC under different conditions: broth MIC; assay type: cell-based; settings: strain not given
# Fusobacterium montiferum = assay: Agar dilution MIC, anaerobes; assay type: cell-based
# [12] = test system: Peptostreptococcus magnum; assay: Agar dilution MIC, anaerobes; assay type: cell-based
# S. pneum AB 34 = assay: MIC, agar incorporation method
# Porphyromonas gingivalis = assay: Agar dilution MIC, anaerobes; assay type: cell-based
# E. faecalis = assay: Summary of in vitro activity (MIC); settings: Enterococcus faecalis
# VRE 6A (Ent. faecium 6A) = assay: MIC, agar incorporation method
# Clostridium camis = assay: Agar dilution MIC, anaerobes; assay type: cell-based
# S. aureus = assay: Summary of in vitro activity (MIC); settings: Staphylococcus aureus
# [13] = test system: Mycobacterium avium intracellulare; assay: Agar dilution method, mycobacteria; assay type: cell-based
# [14] = test system: Mycobacterium tuberculosis
# [15] = test system: MRSA 1029/99 and MRSE 879/247; assay: Inhibition of biofilm (slime) production; assay type: cell-based; settings: trypticase soy broth with 2% glucose, overnight 37° C., safranin OD 544 nm
# Procedure: To study the effect of Compound No. 16 on the inhibition of biofilm production, the following study was carried out. […] Bacterial suspensions (in triplicate) were exposed to doubling dilution of antibiotics and incubated overnight at 37° C. with constant shaking (100 rpm). Next day, after aspirating the medium, biofilm was stained with safranin (0.1%) for 1 hour at room temperature, washed with distilled water, tapped dried and stain extracted into 200 μl of 0.2M NaoH and OD measured at 544 nm. Relative inhibition was determined by using the formula: […]
# S. aureus ATCC 25923 = assay: MIC, agar incorporation method; settings: agar incorporation
# [16] = test system: Peptostreptococcus asaccharolyticus; assay: Agar dilution MIC, anaerobes; assay type: cell-based; settings: single isolates, anaerobic agar dilution
# [17] = single isolates, anaerobic agar dilution
# [18] = anaerobes, Wilkins Chalgren agar, 48 hour
# [19] = single isolate, anaerobic agar dilution
smiles,measurement,setting,value
CN[C@H](CC(C)C)C(=O)N[C@H]1C(=O)N[C@@H](CC(N)=O)C(=O)N[C@H]2C(=O)N[C@H]3C(=O)N[C@H](C(=O)N[C@H](C(=O)O)c4cc(O)cc(O)c4-c4cc3ccc4O)[C@H](O)c3ccc(c(Cl)c3)Oc3cc2cc(c3O[C@@H]2O[C@H](CO)[C@@H](O)[C@H](O)[C@H]2O[C@H]2C[C@](C)(N)[C@H](O)[C@H](C)O2)Oc2ccc(cc2Cl)[C@H]1O [Vancomycin],MIC,"MRSA 33; Staphylococcus aureus, MRSA, read-out: MIC MRSA 33",0.5 µg/mL
same,ED50 (mg/kg body weight),MRSA 562 [1],8.84 (IV) mg/kg body weight
same,MIC50,anaerobic bacteria; 48 h,32 µg/mL
same,MIC90,anaerobic bacteria; 48 h,32 µg/mL
same,Geometric Mean,anaerobic bacteria; anaerobes,9.306 µg/mL
same,MIC Range,anaerobic bacteria; anaerobes,0.5 to 32 µg/mL
same,MIC,"MRSA 15187; Staphylococcus aureus, MRSA, read-out: MIC MRSA 15187",0.5 µg/mL
same,MIC,"Bacteroides fragilis; Bacteroides fragilis, read-out: MIC Bacteroides fragilis",> 16 µg/mL
same,MIC,"Clostridium perfringens; Clostridium perfringens, read-out: MIC Clostridium perfringens",0.5 µg/mL
same,MIC,[2],> 16 µg/mL
same,MIC,Fusobacterium varium,> 16 µg/mL
same,MIC,"Ent. faecalis ATCC 29212; Enterococcus faecalis, ATCC29212, read-out: MIC E. faecalis 29212",4 µg/mL
same,MIC,[3],> 16 µg/mL
same,MIC,"Strep. pyog. ATCC 19615; Streptococcus pyogenes, ATCC19615, read-out: MIC S. pyogenes 19615",0.5 µg/mL
same,MIC50,G +ve bacteria,0.5 µg/mL
same,MIC90,G +ve bacteria,16 µg/mL
same,MIC,"P. acnes; Cutibacterium acnes, read-out: MIC P. acnes, single isolates, anaerobic agar dilution",0.5 µg/mL
same,MIC P. acnes,P. acnes,1 µg/mL
same,concentration which would kill adherent bacteria,[4],8 µg/mL
same,MIC,"MRSE 879; Staphylococcus epidermidis, MRSE, read-out: broth MIC",1 µg/mL
same,MIC,"Eubacterium leutum; Eubacterium, read-out: MIC Eubacterium leutum",1 µg/mL
same,MIC,"Fusobacterium necrogenes; Fusobacterium necrogenes, read-out: MIC Fusobacterium necrogenes",> 16 µg/mL
same,MIC,"Clostridium difficile; Clostridioides difficile, read-out: MIC Clostridium difficile, single isolates, anaerobic agar dilution",2 µg/mL
same,MIC Clostridium difficile,Clostridium difficile,4 µg/mL
same,MIC,[5],0.125 µg/mL
same,MIC50,S. pneumoniae,0.5 µg/mL
same,MIC90,S. pneumoniae,0.5 µg/mL
same,MIC,S. pneumoniae; read-out: Geometric Mean of in vitro activity (MIC),0.39 µg/mL
same,MIC,"Prevotella bivia; Prevotella bivia, read-out: MIC Prevotella bivia",> 16 µg/mL
same,MIC,MRSA 562 [6],0.5 µg/mL
same,MIC,MRSA 562 [6]; read-out: MIC MRSA 562,0.5 µg/mL
same,MIC,"Strep. pne. ATCC 6303; Streptococcus pneumoniae, ATCC6303, read-out: MIC S. pneum 6303",0.5 µg/mL
same,Agar MIC,[7],1 µg/mL
same,MIC,"[8]; Anaerococcus tetradius, read-out: MIC Peptostreptococcus tetradius",1 µg/mL
same,MIC,"Prevotella intermedia; Prevotella intermedia, read-out: MIC Prevotella intermedia",> 16 µg/mL
same,MIC,[9],1 µg/mL
same,MIC,Fusobacterium nucleatum,> 16 µg/mL
same,MIC,"[10]; Porphyromonas asaccharolytica, read-out: MIC Porphyromonas asaccharolytica",2 µg/mL
same,Broth MIC +50% Sheep serum,[11],1 µg/mL
same,Broth MIC Normal MH broth,[11],1 µg/mL
same,MIC,"Fusobacterium montiferum; Fusobacterium, read-out: MIC Fusobacterium montiferum",> 16 µg/mL
same,MIC,"[12]; Peptostreptococcus, read-out: MIC Peptostreptococcus magnum, single isolates, anaerobic agar dilution",0.5 µg/mL
same,MIC Peptostreptococcus magnum,[12]; [17],0.25 µg/mL
same,MIC,"S. pneum AB 34; Streptococcus pneumoniae, AB34, read-out: MIC S. pneum AB 34",0.25 µg/mL
same,MIC,"Porphyromonas gingivalis; Porphyromonas gingivalis, read-out: MIC Porphyromonas gingivalis",8 µg/mL
same,MIC50,E. faecalis,16 µg/mL
same,MIC90,E. faecalis,16 µg/mL
same,MIC,"VRE 6A (Ent. faecium 6A); Enterococcus, VRE, read-out: MIC VRE 6A",> 16 µg/mL
same,MIC,"Clostridium camis; Clostridium, read-out: MIC Clostridium camis",2 µg/mL
same,MIC50,S. aureus,1 µg/mL
same,MIC90,S. aureus,1 µg/mL
CC(=O)NC[C@H]1CN(c2ccc(N3CCN(Cc4ccc([N+](=O)[O-])o4)CC3)c(F)c2)C(=O)O1.Cl [Compound No. 16],MIC MRSA 33,MRSA 33; agar incorporation,4 µg/mL
same,MIC50,"[13]; Middlebrook 7H10 agar, 21 days",8 µg/mL
same,MIC90,"[13]; Middlebrook 7H10 agar, 21 days",32 µg/mL
same,G.M.,[13]; geometric mean MIC,8.52 µg/mL
same,Geometric Mean,anaerobic bacteria; anaerobes,0.037 µg/mL
same,MIC Range,anaerobic bacteria; anaerobes,0.004 to 1 µg/mL
same,MIC50,anaerobic bacteria; [18],0.032 µg/mL
same,MIC90,anaerobic bacteria; [18],0.25 µg/mL
same,MIC MRSA 15187,MRSA 15187; agar incorporation,4 µg/mL
same,MIC Bacteroides fragilis,Bacteroides fragilis; [17],0.03 µg/mL and 0.06 µg/mL
same,MIC Clostridium perfringens,Clostridium perfringens; [17],0.03 µg/mL
same,MIC E. faecalis 29212,Ent. faecalis ATCC 29212; agar incorporation,2 µg/mL
same,MIC50,"[14]; Middlebrook 7H10 agar, 21 days",4 µg/mL
same,MIC90,"[14]; Middlebrook 7H10 agar, 21 days",64 µg/mL
same,G.M.,[14]; geometric mean MIC,5.44 µg/mL
same,MIC S. pyogenes 19615,Strep. pyog. ATCC 19615; agar incorporation,0.5 µg/mL
same,MIC P. acnes,P. acnes,1 µg/mL
same,concentration which would kill adherent bacteria,[4],2 µg/mL
same,broth MIC,MRSE 879; MRSE 879,0.5 µg/mL
same,MIC Eubacterium leutum,Eubacterium leutum; [17],<=.008 μg/ml
same,MIC Fusobacterium necrogenes,Fusobacterium necrogenes; [19],<=.008 μg/ml
same,MIC Clostridium difficile,Clostridium difficile,0.03 µg/mL
same,MIC Prevotella bivia,Prevotella bivia; [19],0.125 µg/mL
same,Formation of biofilm inhibition,[15],occurs at lower a concentration
same,MIC S. pneum 6303,Strep. pne. ATCC 6303; agar incorporation,1 µg/mL
same,MIC S. aureus 25923,S. aureus ATCC 25923,2 µg/mL
same,Agar MIC,[7],2 µg/mL
same,MIC Peptostreptococcus tetradius,[8]; [17],<=.008 μg/ml
same,MIC Prevotella intermedia,Prevotella intermedia; [17],0.016 µg/mL
same,MIC Porphyromonas asaccharolytica,[10]; [19],<=.008 μg/ml
same,Broth MIC +50% Sheep serum,[11],2 µg/mL
same,Broth MIC Normal MH broth,[11],2 µg/mL
same,MIC Fusobacterium montiferum,Fusobacterium montiferum; [17],0.03 µg/mL
same,MIC Peptostreptococcus asaccharolyticus,[16],<=.008 μg/ml
same,MIC S. pneum AB 34,S. pneum AB 34; agar incorporation,1 µg/mL
same,MIC Porphyromonas gingivalis,Porphyromonas gingivalis; [19],<=.008 μg/ml
same,MIC VRE 6A,VRE 6A (Ent. faecium 6A); agar incorporation,4 µg/mL
same,MIC Clostridium camis,Clostridium camis; [17],0.03 µg/mL and 0.016 µg/mL
